One assay deals with BR5-Akt-Luc2 tumors. Briefly: Cisplatin and vaccine combination therapy in late stage ovarian cancer model. The class given is in vivo, FVB mice. The settings on record: cisplatin 2 mg/kg intraperitoneally Day 9, vaccine Day 10 after tumor challenge. As for the experimental part: Tumor-bearing or naïve female FVB mice were vaccinated intraperitoneally with irradiated (100 Gy at […], 15 mA, 48 Gy/min; or a Cs-137 gamma irradiator with a dose rate of 63 cGy/min) or silicified BR5-Akt (or BR5-Akt-Luc2 for vaccine viability analysis) cells (with TLR ligands as indicated) using doses of 3×10^4, 3×10^5, 3×10^6, or 3×10^7 Si-cells/mouse in 200 μl of PBS at the indicated schedules. Alternatively, mice were vaccinated subcutaneously (SC) with 3×10^6 Si-cells by scruffing the skin at the back of their neck and injecting an equivalent volume into the loose fold of skin. Mice that cleared all tumor cells based on IVIS Spectrum bioluminescent imaging were re-challenged with 2×10^5 BR5-Akt-Luc2 cancer cells at a later date, as indicated for each study. All control (no Tx) mice received sham PBS injections (200 μl/mouse). Single agent or combination therapy with cisplatin used IP administration of cis-diamineplatinum (II) dichloride (Sigma-Aldrich, St. Louis, MO) on Day 9 at 2 mg/kg in physiological saline.
For in vivo monitoring of tumor burden, mice with BR5-Akt-Luc2 tumors were administered 150 mg luciferin/kg by intraperitoneal injection, with a 10-minute delay before imaging. Mice were then anesthetized using 2.5% isoflurane, and 2D/3D bioluminescence images were acquired using an in vivo imaging system (XENOGEN IVIS SPECTRUM, PerkinElmer, Inc., Waltham, MA). […]

For assay [1], the system named is dendritic cells (CD11c^+). Kind of assay: In vitro activation of dendritic cells (CD40) by silicified tumor cells and doxorubicin-treated cancer cell supernatant. The format is cell-based. The settings on record: supernatant from cancer cells treated with doxorubicin 5 ng/mL or 50 ng/mL, with vaccine. As for the experimental part:
Dendritic cells were seeded in 12-well plates at a density of 100,000 cells per well. After 24 hours, supernatant from cancer cells treated with doxorubicin (5 ng/mL or 50 ng/mL) was added, with or without 100,000 silicified tumor cells. Cells were labeled with fluorescent antibodies specific for CD40 and CD11c and analyzed using the Attune Flow Cytometer.

Turning to `N.N.[Cl][Pt][Cl]` [Cisplatin, cis-diamineplatinum (II) dichloride], in the assay with BR5-Akt-Luc2 tumors, the survival entry is “improved survival” and the “tumor burden (bioluminescence)” value was “reduced tumor burden in some mice”. Turning to `COc1cccc2c1C(=O)c1c(O)c3c(c(O)c1C2=O)C[C@@](O)(C(=O)CO)C[C@@H]3O[C@H]1C[C@H](N)[C@H](O)[C@H](C)O1` [doxorubicin], the “activation of dendritic cells (surface expression of CD40)” value in assay [1] is reported as “enhanced vaccine-mediated activation of dendritic cells”.
